Measurements from patent US20220381784A1, “SYSTEMS COMPRISING SUBSTRATES AND METHODS OF USING THE SAME FOR DETECTION OF PANCREATIC CANCERS” (THE REGENTS OF THE UNIVERSITY OF CALIFORNIA, priority 2019, published 2022).
Values belong to the molecule of their own block, whether it stands above or below them. Square brackets hold non-standard residues; d marks the D form. Peptide text beside a SMILES is read from it. * marks the point of attachment. Sta = CC(C)C[C@H](N)[C@@H](O)CC(=O)O; Isovaleryl = CC(C)CC(=O)*; CH2Cl = ClC*

Experiments:
[1] = test system: tri-amino peptidase activity in mucinous cyst fluid; assay: MSP-MS assay of mucinous cyst fluid with protease inhibitors; type: biochemical, human; details: 2 μmol/L pepstatin; for effect on tri-amino peptidase activity (cleavage after third amino acid): pH 3.5, 10 μmol/L AAF-CMK
Experimental: The MSP-MS assay was performed as described previously (Ivry et al., 2017; O'Donoghue et al., 2012). Cyst fluid protein concentration was first determined through the BCA assay (Thermo Fisher, 23225). Cyst fluid samples were then diluted to 100 μg/mL in pH 3.5 acetate buffer or pH 7.5 phosphate buffer. The 228 tetradecapeptide was split into two pools of 114 peptides each and diluted to 1 μmol/L in either acetate or phosphate buffer. Equal volumes of diluted cyst fluid and peptide pools were combined and incubated at room temperature. After 15 and 60 minutes, 30 μL aliquots were removed and protease activity was quenched with 8 mol/L guanidinium hydrochloride. Aliquots were then desalted using C18 tips (Rainin). The following inhibitors were included in specified MSP-MS assays: 1 mmol/L AEBSF (Sigma, A8456), 2 mmol/L E64 (Sigma, E3132), 2 μmol/L pepstatin (Sigma, P5318), 2 mmol/L 1,10-phenanthroline (Sigma, 131337), and 10 μmol/L AAF-CMK (Enzo, BML-PI123).
Mass spectrometry analysis was performed with an LTQ Orbitrap XL Mass Spectrometer (Thermo Fisher) coupled to an Ultra Performance Liquid Chromatography (UPLC) System (Waters). Peptides were separated over a C18 column (Thermo Fisher, ES800) with a 65-minute linear gradient from 2%-30% acetonitrile. MS spectra were acquired over an m/z range of 325-1,500 and MS/MS spectra were obtained for the six most intense precursor ions by collision-induced dissociation (CID). Peak lists were generated using MSConvert and searched in Protein Prospector v. 5.10.0 against a database containing the sequences from the 228 tetradecapeptide library. Searches used a mass tolerance of 20 ppm for precursors and 0.8 Da for fragments. The following variable modifications were allowed: N-terminal pyroglutamate conversion from glutamine or glutamate and oxidation of tryptophan, proline, and tyrosine. Search outputs were then processed using the MSP-xtractor software (http://www.craiklab.ucsfedu/extractor.html). […] Spectral counts were used for relative quantification of MSP-MS results.

[2] = biological target: most rapidly cleaved internally quenched fluorescent TPP1 substrate (P3 to P4' sequence from the MSP-MS library, lysine-fluorophore in P1)

Molecule: C[C@H](N)C(=O)N[C@@H](C)C(=O)N[C@@H](Cc1ccccc1)C(=O)CCl [tripeptide chloromethylketone inhibitor, Ala-Ala-Phe-chloromethylketone] (H-Ala-Ala-Phe-CH2Cl)
effect on tri-amino peptidase activity (cleavage after third amino acid) [1]: almost completely ablated

number of detected peptide cleavages at other positions enriched in mucinous cysts (B6, B8, B9, B10) ([1]; acidic pH): decrease | effect on tri-amino peptidase activity (cleavage after third amino acid) [1]: not inhibited
Molecule: CC(C)CC(=O)N[C@H](C(=O)N[C@H](C(=O)N[C@@H](CC(C)C)[C@@H](O)CC(=O)N[C@@H](C)C(=O)N[C@@H](CC(C)C)[C@@H](O)CC(=O)O)C(C)C)C(C)C [pepstatin] (Isovaleryl-VV[Sta]A[Sta]-OH)

B1: recombinant tripeptidyl peptidase 1 (TPP1) (protein)
chain: LHLGVTPSVIRKRYNLTSQDVGSGTSNNSQACAQFLEQYFHDSDLAQFMRLFGGNFAHQASVARVVGQQGRGRAGIEASLDVQYLMSAGANISTWVYSSPGRHEGQEPFLQWLMLLSNESALPHVHTVSYGDDEDSLSSAYIQRVNTELMKAAARGLTLLFASGDSGAGCWSVSGRHQFRPTFPASSPYVTTVGGTSFQEPFLITNEIVDYISGGGFSNVFPRPSYQEEAVTKFLSSSPHLPPSSYFNASGRAYPDVAALSDGYWVVSNRVPIPWVSGTSASTPVFGGILSLINEHRILSGRPPLGFLNPRLYQQHGAGLFDVTRGCHESCLDEEVEGQGFCSGPGWDPVTGWGTPNFPALLKTLLNP
kcat/Km (cleavage of internally quenched fluorescent substrate, fluorescence assay, pH 4.5) [2]: kcat/Km of 2.5 µmol^-1s^-1
